Reference: US20230190707A1, “COMPOSITIONS AND METHODS FOR ENHANCING CANCER IMMUNOTHERAPY” (FRED HUTCHINSON CANCER CENTER, priority 2020, published 2023)
Read-outs that look alike come from different tables or passages of the source.

Key:
[1] = tested on: bone marrow hematopoietic stem and progenitor cells; assay: M3434 methylcellulose colony assay; assay type: cell-based, mouse
Procedure: 25,000 red blood cell-lysed bone marrow mononuclear cells from C57BL/6 mice were plated in duplicates or triplicates in each well of a non-tissue-culture treated 6 well plate with M3434 methylcellulose media in the presence of splicing drugs at the indicated concentrations as per manufacturer's instructions (StemCell Technologies, Cat. 03434) and incubated for seven days prior to quantification of colonies by manual microscopy.

[2] = tested on: donor T cells; assay: CFSE adoptive T cell transfer with in vivo splicing modulator treatment
Procedure: Splenic T cells were obtained from B6 or CD45.1 donors by CD5 positive selection (Miltenyi Biotec, Cat. 130-049-301), labeled with CellTrace CFSE (ThermoFisher Cat. C34570) at 10 μM, and adoptively transferred by tail vein injection into lethally irradiated B6, Balb/c, or LP/J recipients, with […] labeled donor T cells transferred per recipient. All recipients were irradiated on day −1 prior to adoptive T cell transfer with 7 Gy as a single fraction and continuously received splicing inhibitor drugs or vehicle control at the indicated doses, from day −1 until day of sacrifice, with the initial dose of drug at least 4 hours after lethal irradiation. Indisulam and MS-023 were solubilized for in vivo administration and animals were treated as above. Pladienolide B (Tocris, Cat. 6070) and GEX1A (Cayman Chemicals, Cat. 25136) were both dissolved in vehicle (10% ethanol and 4% Tween-80 in sterile PBS) and administered i.p., with pladienolide B dosed at 10 mg/kg every other day, and GEX1A dosed at 1.25 mg/kg every four days. For in vivo use, EPZ015666 was dissolved in DMSO and solubilized in 0.5% methylcellulose in water to 20 mg/mL; animals were treated daily with 200 mg/kg by oral gavage.

[3] = tested on: CD5^+ splenic T cells; assay: Anti-CD3/CD28 T cell activation and proliferation (CFSE); assay type: cell-based, mouse; details: three days of continuous drug exposure
Procedure: Cell lines were grown with half-log10 concentrations of the indicated drug in 4 to 8 technical replicates under standard conditions until the control condition (DMSO or vehicle) was confluent by microscopy. For tumor cell lines, viable cells were quantified via the CellTiter-Glo® assay (Promega Cat. G7573) as per manufacturer instructions. For the ex vivo proliferation of T cells, viable cells were instead quantified via flow cytometry using counting beads. The percentage or number of viable cells with drug treatment was calculated relative to DMSO control (as 100%). […] For absolute cell number, Annexin V+, CD25+, and PD1+ flow cytometry data presented in Figure S4, dose-response models and IC50 values were computed using the R language's dre package (Ritz, C., et al. (2015). Dose-Response Analysis Using R. PLoS One 10, e0146021).
(§1) Plates were coated with 10 μg/mL anti-CD3 (clone 145-2C11, Biolegend Cat. 100302) and 2 μg/mL anti-CD28 (clone 37.51, Biolegend Cat. 102102) in PBS overnight at 4° C. and washed twice with cold PBS prior to use. CFSE-labeled CD5-selected splenic T cells from naïve C57BL/6J mice were obtained identically as for adoptive cell transfer, and 5×10^4 cells incubated with coated plates in the presence of splicing inhibitor drugs at the indicated concentrations, followed by analysis by standard flow cytometry on day 3. Of note, for RNA-seq analyses, T cells were not labeled with CFSE, and underwent activation for 4 days (96 hours) in the presence of various splicing modulator drugs to harmonize experimental conditions with RNA-seq analyses of tumors treated with splicing inhibitors. For the RNA-seq experiments only, T cells in all conditions were also incubated with IL-2 at 50 U/mL to maximize viability and yield.

[4] = tested on: T cells stimulated with anti-CD3 and CD28 antibodies; assay: Gene expression program of activated T cells (RNA-seq); assay type: cell-based, mouse; details: ex vivo anti-CD3 and CD28 stimulation in presence of drug
Procedure: as §1
Bulk lung and colon were homogenized using a Qiagen TissueRuptor. For all tissues and cell types, RNA was extracted using an RNeasy kit (Qiagen, Frederick, Md.) and quantified using a NanoDrop 8000 (ThermoFisher Scientific). A minimum of 500 ng of high-quality RNA (as determined by Agilent Bioanalyzer) per sample or replicate was used for library preparation. Poly(A)-selected, strand-specific (dUTP method) Illumina libraries were prepared with a modified TruSeq protocol and sequenced on the Illumina HiSeq 2000 (˜100M 2×101 bp paired-end reads per sample or replicate).

| Compound | hematopoiesis (colony formation) [1] | in vivo T cell proliferation or activation in response to alloantigen ([2]; mouse, in vivo) | IC50 values, T cell proliferation following stimulation (in words) [3] | hematopoiesis (colony formation) ([1]; micromolar doses, pladienolide B at nanomolar concentrations) | in vivo T cell proliferation or activation in response to alloantigen ([2]; CD45.1 T cells into irradiated Balb/c or LP/J recipients, daily treatment) | genes normally upregulated upon T cell activation [4] |
| --- | --- | --- | --- | --- | --- | --- |
| O=C(NC[C@H](O)CN1CCc2ccccc2C1)c1cc(NC2COC2)ncn1 [EPZ015666] | suppressed hematopoiesis | minimal impairment |  |  |  |  |
| CO[C@H]([C@@H](C)[C@H]1O[C@]1(C)C[C@H](C)/C=C/C=C(\C)[C@H]1O[C@@H](CC(=O)O)CC[C@@H]1C)[C@@H](C)O [GEX1A, herboxidiene] |  |  | low nanomolar range |  |  |  |
| pladienolide B |  |  | low nanomolar range | even more profoundly suppressed hematopoiesis | markedly suppressed T cell proliferation | markedly attenuated |
